Laboratory results from US11674959B2, “Methods for identifying and preparing pharmaceutical agents for activating Tie1 and/or Tie2 receptors” (The Johns Hopkins University, priority 2017, dated 2023).

Key:
MEC monolayers = test: FITC Transwell permeability assay; format: cell-based, human
Experimental: The integrity of these junctions is also important for the regulation of monolayer permeability by controlling the size of intercellular openings. The effect of the AXT107 on EC permeability was further investigated by the transendothelial diffusion of FITC-labeled dextran across MEC monolayers seeded onto permeable Transwell® substrates.
Human dermal microvascular endothelial cells (Lonza) were maintained at 37° C. and 5% CO2 in EBM-2MV medium (Lonza) and used between passages two through seven. Where applicable, cells were serum starved in EBM-2 medium (Lonza) with no supplements. For FITC-Dextran permeability assays phenol red-free media were used to avoid auto-fluorescence. AXT107 were manufactured at New England Peptide by […], lyophilized, and dissolved in 100% DMSO.
Transwell, twenty-four-well inserts (Corning) were coated with 7.5 μg/cm^2 FN1 for two hours at 37° C., aspirated, and then dried for thirty minutes at room temperature. Wells were then seeded with 7.5×10^4 MECs in 100 μl of EBM-2 media (without phenol red) and allowed to settle for thirty minutes at room temperature. 1 ml of EGM-2 media was then added to the bottom chamber and an additional 200 μl to the top chamber. The plate was incubated for twenty-four hours at 37° C. after which the media was aspirated and an additional 7.5×10^4 MECs were plated in each well as described above. After forty-eight hours at 37° C., the media was aspirated from both chambers and the cells were washed twice in dPBS containing Ca^2+ and Mg^2+, once with EBM-2 media (without phenol red) and serum starved in EBM-2 media applied to both chambers for two hours at 37° C. After this incubation, 100 μM AXT107 or an equivalent amount of DMSO vehicle was added and incubated for an additional ninety minutes. In the top chamber, the cells were then treated with 200 ng/ml Ang2, 100 ng/ml VEGFA, both, or PBS control and in the bottom chamber, the cells were then treated with 25 μg/ml FITC-Dextran (40 kDa MW). AXT107 was also added in both chambers to maintain a concentration of 100 μM. After three hours, 10 μl was removed from the top chamber of each well and mixed with 90 μl of water in a clear bottom, 96-well plate. Fluorescence values for each sample were calculated using a Perkin Elmer plate reader.

[1] = tested on: VEGFR2, cMet, PDGFRβ, and IGF1R; conditions: VEGFR2, c-Met, literature; cited from earlier work
Tie2 = Tie2 immunoprecipitation from fractionated MEC lysates, blotted for phospho-Tie2; format: cell-based, human; conditions: Ang2 with or without AXT107; soluble vs insoluble fractions
Experimental: Next, experiments were performed to determine whether or not relocation of Tie2 to the insoluble fraction was important for Tie2's activation by Ang2. Tie2 was immunoprecipitated from fractionated MEC lysates exposed to Ang2 with or without AXT107 and then immunoblotted for phospho-Tie2.
(§1) The isolation of Triton X-100 soluble and insoluble fractions was performed using modifications to previously-described procedures (see, e.g., Lampugnani et al., J Cell Biol. 1995; 129(1):203-217). FN1-coated six-well plates were seeded with 2.5×10^6 cells and cultured for forty-eight hours, as described above. The cultures were then serum starved for ninety minutes in EBM-2 media, treated with 100 μM AXT107 or DMSO vehicle, and fifteen minutes with 1 mM sodium vanadate. The cells were then stimulated with either 100 ng/ml VEGFA, 400 ng/ml Ang2, or PBS for fifteen minutes. The plates were then transferred to ice and washed twice with cold dPBS containing Ca^2+ and Mg^2+ and twice with EBM-2 media. The media was then removed and the cells incubated for thirty minutes on ice, at 4° C. in 200 μl of Triton X-100 extraction buffer (10 mM Tris-HCl, pH 7.5; 150 mM NaCl; 2 mM CaCl2; 1% NP-40; 1% […]; and a protease inhibitor cocktail (Cell Signaling, Cat #: 5871)) with occasional agitation. […] Samples were analyzed by western blot as described above. […]

integrin αvβ3 = integrin αvβ3 (Homo sapiens, UniProt P05106+P06756); conditions: Lee et al. 2014; Lima et al. 2017; cited from earlier work
Sequence of integrin αvβ3 (P06756 31-1048): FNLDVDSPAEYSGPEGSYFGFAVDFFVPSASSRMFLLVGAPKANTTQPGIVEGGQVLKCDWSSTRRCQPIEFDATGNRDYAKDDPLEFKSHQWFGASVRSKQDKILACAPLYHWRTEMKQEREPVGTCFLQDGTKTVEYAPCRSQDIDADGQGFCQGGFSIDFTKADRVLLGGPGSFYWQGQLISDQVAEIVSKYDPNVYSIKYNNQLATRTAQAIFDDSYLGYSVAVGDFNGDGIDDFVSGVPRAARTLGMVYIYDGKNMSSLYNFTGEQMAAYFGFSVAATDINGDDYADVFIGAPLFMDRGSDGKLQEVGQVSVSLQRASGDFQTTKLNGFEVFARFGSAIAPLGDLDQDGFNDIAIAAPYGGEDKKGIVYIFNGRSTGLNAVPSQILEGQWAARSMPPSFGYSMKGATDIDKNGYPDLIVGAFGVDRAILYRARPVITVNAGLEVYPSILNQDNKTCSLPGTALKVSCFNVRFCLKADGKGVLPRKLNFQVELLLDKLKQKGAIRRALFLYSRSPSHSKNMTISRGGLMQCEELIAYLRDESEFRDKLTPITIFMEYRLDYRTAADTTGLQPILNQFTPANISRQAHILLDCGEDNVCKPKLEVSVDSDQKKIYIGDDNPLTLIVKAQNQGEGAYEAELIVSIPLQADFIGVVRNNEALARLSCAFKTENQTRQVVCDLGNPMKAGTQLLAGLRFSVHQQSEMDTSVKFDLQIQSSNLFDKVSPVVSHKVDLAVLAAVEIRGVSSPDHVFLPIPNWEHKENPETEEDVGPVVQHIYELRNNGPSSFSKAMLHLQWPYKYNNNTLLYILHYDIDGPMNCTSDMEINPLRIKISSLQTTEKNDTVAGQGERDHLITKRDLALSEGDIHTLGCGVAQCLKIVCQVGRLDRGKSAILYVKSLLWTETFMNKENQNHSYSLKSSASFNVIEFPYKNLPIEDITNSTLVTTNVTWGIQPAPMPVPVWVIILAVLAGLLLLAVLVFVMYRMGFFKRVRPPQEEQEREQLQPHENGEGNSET
Sequence of integrin αvβ3 (P05106 27-788): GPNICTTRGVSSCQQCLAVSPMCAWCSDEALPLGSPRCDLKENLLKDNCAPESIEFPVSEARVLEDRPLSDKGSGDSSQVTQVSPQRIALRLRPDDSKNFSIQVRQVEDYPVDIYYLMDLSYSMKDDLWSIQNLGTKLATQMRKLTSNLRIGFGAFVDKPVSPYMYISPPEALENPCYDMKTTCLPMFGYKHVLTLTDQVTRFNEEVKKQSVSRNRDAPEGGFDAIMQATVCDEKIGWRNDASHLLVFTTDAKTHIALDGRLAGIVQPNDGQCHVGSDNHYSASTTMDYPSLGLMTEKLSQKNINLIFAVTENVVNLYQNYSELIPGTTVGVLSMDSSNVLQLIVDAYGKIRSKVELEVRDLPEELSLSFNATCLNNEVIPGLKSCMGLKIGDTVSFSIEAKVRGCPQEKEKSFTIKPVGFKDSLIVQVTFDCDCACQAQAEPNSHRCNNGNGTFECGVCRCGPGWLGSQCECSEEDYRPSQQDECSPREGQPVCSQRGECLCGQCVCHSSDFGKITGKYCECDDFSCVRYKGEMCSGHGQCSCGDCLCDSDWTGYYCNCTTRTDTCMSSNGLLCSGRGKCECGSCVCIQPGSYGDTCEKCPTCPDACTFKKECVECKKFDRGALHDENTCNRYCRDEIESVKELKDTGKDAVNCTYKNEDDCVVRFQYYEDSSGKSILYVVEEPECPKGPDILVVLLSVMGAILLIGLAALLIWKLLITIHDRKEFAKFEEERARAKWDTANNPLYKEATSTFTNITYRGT

Tie2 / α5 integrin = target: T1, Tie2 / α5 integrin (Homo sapiens, UniProt P08648); test: Tie2 immunoprecipitation from fractionated lysates, blotted for α5 integrin; format: cell-based; conditions: peptide-treated insoluble fraction; with 200 ng/ml Ang2 or no growth factor
T1 construct: host or cells: human dermal microvascular endothelial cells (MECs)
T1 sequence (P08648 42-894 limits assumed): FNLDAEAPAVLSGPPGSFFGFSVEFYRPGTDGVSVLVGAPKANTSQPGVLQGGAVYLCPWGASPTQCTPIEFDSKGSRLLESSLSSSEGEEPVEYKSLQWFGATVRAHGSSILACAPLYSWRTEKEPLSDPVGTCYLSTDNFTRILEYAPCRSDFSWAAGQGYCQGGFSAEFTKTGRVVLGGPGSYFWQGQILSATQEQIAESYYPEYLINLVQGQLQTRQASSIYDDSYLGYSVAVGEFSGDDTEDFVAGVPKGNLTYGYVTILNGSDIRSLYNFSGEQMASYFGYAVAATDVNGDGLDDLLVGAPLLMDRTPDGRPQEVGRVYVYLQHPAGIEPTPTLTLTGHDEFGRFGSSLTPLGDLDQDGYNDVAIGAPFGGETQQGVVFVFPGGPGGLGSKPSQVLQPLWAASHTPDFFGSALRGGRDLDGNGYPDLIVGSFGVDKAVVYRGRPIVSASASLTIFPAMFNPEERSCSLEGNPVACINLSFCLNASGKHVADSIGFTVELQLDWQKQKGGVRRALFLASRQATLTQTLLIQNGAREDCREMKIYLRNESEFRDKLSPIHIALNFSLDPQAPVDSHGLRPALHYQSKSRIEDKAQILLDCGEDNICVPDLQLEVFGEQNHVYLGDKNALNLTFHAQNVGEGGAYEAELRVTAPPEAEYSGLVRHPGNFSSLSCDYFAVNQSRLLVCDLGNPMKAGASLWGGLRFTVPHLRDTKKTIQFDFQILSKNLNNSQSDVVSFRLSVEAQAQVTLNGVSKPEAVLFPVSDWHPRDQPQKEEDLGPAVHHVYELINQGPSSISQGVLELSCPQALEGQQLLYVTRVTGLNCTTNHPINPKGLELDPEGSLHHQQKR
T1 sequence (P08648 895-1049 limits assumed): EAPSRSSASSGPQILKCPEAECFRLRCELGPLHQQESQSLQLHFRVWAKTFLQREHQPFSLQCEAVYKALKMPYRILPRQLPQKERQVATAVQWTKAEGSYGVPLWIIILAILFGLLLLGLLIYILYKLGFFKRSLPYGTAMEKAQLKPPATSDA
T1 sequence (Q02763 23-1124 partner): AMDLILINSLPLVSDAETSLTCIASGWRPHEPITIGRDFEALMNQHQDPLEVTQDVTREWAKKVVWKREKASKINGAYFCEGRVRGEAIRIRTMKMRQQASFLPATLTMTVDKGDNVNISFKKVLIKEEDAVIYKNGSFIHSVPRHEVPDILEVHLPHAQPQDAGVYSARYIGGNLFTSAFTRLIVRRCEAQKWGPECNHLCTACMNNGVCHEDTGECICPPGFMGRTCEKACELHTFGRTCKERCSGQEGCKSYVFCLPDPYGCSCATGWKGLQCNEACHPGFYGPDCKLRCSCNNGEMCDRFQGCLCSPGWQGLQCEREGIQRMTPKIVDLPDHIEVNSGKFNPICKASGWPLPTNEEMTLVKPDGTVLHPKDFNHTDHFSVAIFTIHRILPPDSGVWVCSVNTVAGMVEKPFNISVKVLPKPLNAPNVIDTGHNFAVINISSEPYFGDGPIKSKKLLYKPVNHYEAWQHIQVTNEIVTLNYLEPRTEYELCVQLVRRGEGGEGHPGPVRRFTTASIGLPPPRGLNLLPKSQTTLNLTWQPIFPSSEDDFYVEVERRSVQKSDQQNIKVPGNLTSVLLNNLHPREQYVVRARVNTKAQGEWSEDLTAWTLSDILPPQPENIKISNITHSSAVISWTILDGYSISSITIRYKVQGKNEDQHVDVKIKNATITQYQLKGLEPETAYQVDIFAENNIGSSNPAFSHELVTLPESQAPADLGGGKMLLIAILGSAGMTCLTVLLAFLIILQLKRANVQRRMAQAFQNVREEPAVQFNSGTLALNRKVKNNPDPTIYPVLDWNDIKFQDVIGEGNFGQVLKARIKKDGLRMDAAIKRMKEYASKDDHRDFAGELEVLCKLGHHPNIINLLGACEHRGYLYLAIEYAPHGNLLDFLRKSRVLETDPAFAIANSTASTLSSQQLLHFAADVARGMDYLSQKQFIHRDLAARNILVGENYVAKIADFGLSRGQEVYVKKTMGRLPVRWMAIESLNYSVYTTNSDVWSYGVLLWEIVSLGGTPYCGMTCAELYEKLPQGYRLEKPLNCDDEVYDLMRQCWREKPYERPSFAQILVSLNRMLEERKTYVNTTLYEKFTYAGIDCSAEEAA
Experimental: Finally, it was determined whether or not the α5 integrin subunit remains complexed with Tie2 following its disassociation with β1 integrin.
as §1, with “agitation. The extraction buffer was gently collected and centrifuged at 12,000×g for five minutes.” for “agitation.”

Sequence: LRRFSTAPFAFIDINDVINF [AXT107]
- FITC-dextran diffusion into the top chamber (MEC monolayers; 100 μM AXT107 pre-incubation + Ang2, vs growth factor alone): significant decrease in FITC-dextran diffusion into the top chamber
- FITC-dextran diffusion into the top chamber (MEC monolayers; 100 μM AXT107 pre-incubation + Ang2 in combination with VEGF, vs growth factors alone): significant decrease in FITC-dextran diffusion into the top chamber
- FITC-dextran diffusion into the top chamber (MEC monolayers; VEGF in the presence vs absence of peptide): similar, but non-significant trend
- FITC-dextran diffusion across the monolayer, agent alone (MEC monolayers; single agent alone, FITC-Dextran 40 kDa, three hours): influenced FITC-dextran diffusion across the monolayer
- Receptor phosphorylation and downstream signals of RTKs [1]: significantly decreases receptor phosphorylation and downstream signals
- Tie2 phosphorylation by fraction (Tie2): phosphorylation was observed only in the insoluble fractions of peptide-treated samples
- Binding to integrin αvβ3 (integrin αvβ3): binds tightly
- α5 integrin complexed with Tie2 (Tie2 / α5 integrin): α5 integrin was observed in the peptide-treated, insoluble fraction following immunoprecipitation of Tie2
